The source of these data is patent US20250213622A1 (priority 2022, published 2025).

Where a name gives a salt, the structure may show the parent alone.

Common to all, as to format: in vivo, C57BL/6J mice
The test system of assay [1] is subacute MPTP mouse model. Nature of the assay: Rotarod test, latency, subacute MPTP mouse model. The settings on record: for Latency time: Selegiline 0.5 mg/kg/d i.p. How it is done: (§1) The mice were weighed and recorded, and injected subcutaneously at the back of the neck at 20 mg/kg, once a day for 5 consecutive days. Subsequent experiments were performed on the 1st, 3rd, 7th and 14th days after the last administration.
(§2) 128 healthy adult mice were randomly divided into six groups according to body weight, including normal control (Sham) group (n=20), MPTP model group (n=28), low-dose Lepalvir (10 U/kg/d) treatment group (n=20), medium-dose Lepalvir (20U/kg/d) treatment group (n=20), high-dose Lepalvir (40 U/kg/d) treatment group (n=20) and positive control drug Selegiline (0.5 mg/kg/d) treatment group (n=20). Among them, mice in the Lepalvir and Selegiline treatment groups were injected with corresponding doses intraperitoneally 1 hour after the first MPTP administration, and continued for 7 or 14 days, once a day. Mice in the MPTP model group were given an equal volume of normal saline (0.1 mL/10 g). Mice in the sham group were only given an equal volume of normal saline (0.1 mL/10 g).
(§3) Behavioral assessment was performed on the 1st, 3rd, 7th and 14th days after the last administration of MPTP.
The rotarod test was used to evaluate the motor balance and limb coordination of mouse. The mouse was placed on the drum of the Rotarod tester, and the speed was set to increase uniformly from 5 rpm/min to 25 rpm/min within 2 minutes. When the mouse fell from the drum to the sensing area below, an infrared sensor would receive the signal and record the time the mouse moved on the drum of the instrument. Before the formal test, three consecutive trainings were required for each mouse. During the test, three consecutive measurements are required, and the average falling time was selected (latency).
For orientation: In the rotarod test animals must keep their balance on a rotating rod.

The test system of assay [2] is Nissl-positive neurons in the substantia nigra pars compacta. Nature of the assay: Nissl staining, neuron count in substantia nigra pars compacta, subacute MPTP mouse model. Particulars: for Number of Nissl-positive neurons in the substantia nigra pars compacta: Selegiline 0.5 mg/kg/d i.p. As to the method:
as §1, §2
(§4) On day 7 and day 14 after the last administration of MPTP respectively, half of the mice in each group were selected, anesthetized with 4% chloral hydrate, and perfused with saline +4% PFA to obtain brain tissue. After gradient dehydration in 20% (v/v) and 30% (v/v) sucrose solutions for 3 days respectively, the mouse brain tissue was embedded in OCT glue and frozen, and the Microtome Cryostat (Leica) was used to continuously slice the tissue (20 μm), and the brain slices of the relevant regions were collected, placed in freezing solution (glycerol: 0.01M PBS=1:1) and stored at −80° C. for use.
Nissl bodies are a type of basophilic substance in the cytoplasm that is widely found in various neurons, and thus the number of neurons in the relevant brain regions was calculated by Nissl staining. Staining was performed using the Nissl staining kit.
(§5) Immunohistochemical positive cells were counted using the Stereo Investigator (MBF bioscience) system and the number of Nissl body-positive cells and TH+ cells in the substantia nigra pars compacta were calculated. […]

For assay [3], the system named is subacute MPTP mouse model. Nature of the assay: Pole climbing test (T-Turn, T-TLA), subacute MPTP mouse model. The settings on record: Selegiline 0.5 mg/kg/d i.p. As to the method:
as §1, §2, §3
The pole climbing test was used to evaluate the motor coordination function of mouse. The pole used was 1 cm in diameter and 50 cm in height. A wooden ball with a diameter of 1.2 cm was fixed to the top of the pole. The pole was wrapped with anti-slip tape to prevent the mouse from slipping. The mouse was placed on the top of the pole with its head facing up. When the mouse started to […], the timer started and the time it took for the mouse to cross the top of the pole (T-Turn) from the start of the movement and the time it took for the mouse to climb down to the bottom with four paws landing on the ground from the start of the movement (T-TLA) were recoded. Before the formal test, three consecutive trainings were required for each mouse. During the test, three consecutive measurements were required, and the shortest time was selected.

In assay [4] the test system is TH-positive neurons in the substantia nigra pars compacta. Nature of the assay: TH (tyrosine hydroxylase) staining, neuron count in substantia nigra pars compacta, subacute MPTP mouse model. Particulars: for Number of TH-positive neurons in the substantia nigra pars compacta: Selegiline 0.5 mg/kg/d i.p. As to the method: as §1, §2, §4
TH mainly marks dopaminergic neurons in the substantia nigra pars compacta. […] The midbrain slices were obtained, washed once with 0.01 M PBS for 10 min, and then incubated with 3% H2O2 for 15 min to remove endogenous peroxidase activity. […]
as §5

Assay [5] has as its system subacute MPTP mouse model. Kind of assay: Open field test, total movement distance, subacute MPTP mouse model. The settings on record: for Total movement distance in the open field test: Selegiline 0.5 mg/kg/d i.p. How it is done:
as §1, §2, §3
The open field test was used to evaluate the autonomous movement ability of mouse. The open field apparatus was made of opaque blue plastic and was 60 cm×60 cm×45 cm in size. During the test, each mouse was placed into the box from the central area, and the movement trajectory of each mouse within 5 minutes was recorded at the same time. The total movement distance was calculated using software (Clever Sys Inc., VA, USA). After each mouse was tested, the open field area was wiped with 75% ethanol to prevent the smell of the previous mouse from affecting the next mouse.

Setting [6] is: positive control Selegiline 0.5 mg/kg/d, day 1, 3, 7, and 14.
[7] abbreviates: positive control Selegiline 0.5 mg/kg/d, day 7 and 14.

For `C#CCN(C)[C@H](C)Cc1ccccc1` [Selegiline, Selegiline hydrochloride], the Latency time in assay [1] (Day 1 after last MPTP) is 160.2 ± 4.8 s; in assay [1] (Day 3 after last MPTP), 173.1 ± 2.2 s; in assay [1] (Day 7 after last MPTP), 168.5 ± 3.5 s; in assay [1] (Day 14 after last MPTP) it was 166.7 ± 4.2 s. Moreover, the “Effect on MPTP-induced shortening of rotarod latency (in words)” value in assay [1] (setting [6]) is reported as “significantly improved”. In addition, the “Number of Nissl-positive neurons in the substantia nigra pars compacta” value in assay [2] (Day 7 after last MPTP) is 10688 ± 458; in assay [2] (Day 14 after last MPTP), 11024 ± 539. Besides, in assay [2] (setting [7]), the “Effect on MPTP-induced decrease in number of Nissl-stained positive neurons (in words)” value was “significantly improved”. In addition, the T-TLA in assay [3] (Day 1 after last MPTP) stood at 9.23 ± 0.65 s; in assay [3] (Day 3 after last MPTP), 5.96 ± 0.49 s; in assay [3] (Day 7 after last MPTP) it was 7.61 ± 0.91 s; in assay [3] (Day 14 after last MPTP) it was 7.90 ± 1.17 s. Besides, the T-Turn in assay [3] (Day 1 after last MPTP) is listed as 1.57 ± 0.10 s; in assay [3] (Day 3 after last MPTP), 1.35 ± 0.09 s; in assay [3] (Day 7 after last MPTP), 1.49 ± 0.14 s; in assay [3] (Day 14 after last MPTP), 1.49 ± 0.20 s. Also, the “Number of TH-positive neurons in the substantia nigra pars compacta” value in assay [4] (Day 7 after last MPTP) worked out at 9578 ± 441; in assay [4] (Day 14 after last MPTP), 9670 ± 692. The “Effect on MPTP-induced decrease in number of TH-positive neurons (in words)” value in assay [4] (setting [7]) is listed as “significantly improved”. The “Total movement distance in the open field test” value came out at 1269 ± 138 mm in assay [5] (1 day after last MPTP), 1359 ± 68 mm in assay [5] (3 days after last MPTP), 684 ± 68 mm in assay [5] (7 days after last MPTP) and 578 ± 51 mm in assay [5] (14 days after last MPTP). In assay [5] (setting [6]), the “Effect on MPTP-induced reduction in total distance traveled (in words)” value is “significantly improved”.
